Test results published in patent US20110092589A1, “Treatment of Inflammatory Conditions and Diseases with Metal-Thiols” (THE CHARLOTTE-MECKLENBURG HOSPOTAL AUTHORITY, priority 2008, published 2011).

Legend:
IL-10 = assay: Serum free IL-10 in mouse inflammation model; type: in vivo, mice; conditions: Table 2; treatment i.v. five hours after initiation of inflammation; BisEDT 20 ug/kg
Method: (§1) In the following examples, the protective effects of BisEDT was studied in an inflammation model of mice. Male swiss white mice weighing between 30-35 grams were used. The cecum of the mice were ligated and perforated to cause inflammation. BisEDT was prepared in a molar concentration of 1:2 by adding 4.9 pi 10.19 M EDT to 1 ml of 50 mM Bi(NO3)3 in propylene glycol.
A total of eight groups each containing 10-20 mice in each group were used for the next phase of the study. Five hours after initiation of inflammation, 20 ug/kg BisEDT was administered intravenously with the combination of different biologics indicated in Table 2 with one group that received vehicle only (control). The survival time for each group was recorded. In another eight groups of mice 10 in each group was injected similarly with the same combination of treatment and control and several measures of immune response were assessed such as measurement of pro- and anti-inflammatory cytokines during BisEDT treatment of these mice. […] From 60-70% of mice survived when treated with one or two doses of 20 μg/kg BisEDT (p<0.05), whereas doses 10-fold higher or lower protected only 30-40% of mice (Table 1). […] However, only free TNFα, not total TNFα or free IL-10, correlated strongly with survival (r=−0.92). IL-10 is an anti-inflammatory cytokine and under certain circumstances it can cause immunosuppression. […]

TNFα = assay: Serum TNFα (total and free) in mouse inflammation model; type: in vivo, mice
Method: as §1
(§2) A total of eight groups each containing 10-20 mice in each group were used for the next phase of the study. Five hours after initiation of inflammation, 20 ug/kg BisEDT was administered intravenously with the combination of different biologics indicated in Table 2 with one group that received vehicle only (control). The survival time for each group was recorded. In another eight groups of mice 10 in each group was injected similarly with the same combination of treatment and control and several measures of immune response were assessed such as measurement of pro- and anti-inflammatory cytokines during BisEDT treatment of these mice. […] From 60-70% of mice survived when treated with one or two doses of 20 μg/kg BisEDT (p<0.05), whereas doses 10-fold higher or lower protected only 30-40% of mice (Table 1). […] However, only free TNFα, not total TNFα or free IL-10, correlated strongly with survival (r=−0.92). IL-10 is an anti-inflammatory cytokine and under certain circumstances it can cause immunosuppression. In order to test whether IL-10 plays a role in the model, monoclonal antibodies to IL-10 (that neutralizes IL-10) were used. […] Additionally, IL10 or IL-10+BisEDT provided no protection for the mice. A general damping down of cytokine production was observed, yet it was the reduction in free TNFα that correlated most closely with prevention. BisEDT appears to preserve the normal cellular response to activating stimuli and to protect mice from immune suppression or overwhelming immune reaction.

Male swiss white mice = assay: Survival in inflammation model of mice (cecum ligated and perforated); type: in vivo; conditions: for % Survival 1 dose: tail vein once daily for three days; for % Survival 1 dose / % Survival 2 doses: monitored 8 days; for % Survival 2 doses: tail vein twice daily for three days; for % Survived / Survived/Total: Table 2, treatment i.v. five hours after initiation of inflammation, BisEDT 20 ug/kg
Method: as §1
A total of sixty mice, 10 in each group, were used in the survival phase of experimentation. Five hours after CLP, BisEDT was administered intravenously in five groups via the tail vein, once a day for three days, at doses of 0.2, 2, 20, 200 and 2000 ug Bi^3+/kg, while the last group received vehicle only. The survival time for each group of mice was recorded to determine an optimal dosage of BisEDT. The study was repeated using limited doses to confirm the results, and to determine if more frequent dosing would increase or prolong survival. This group was injected twice daily with the same doses of BisEDT, with one control group.
as §2
After inflammation, BisEDT was introduced into the tail vein once or twice daily for three days. Mice were monitored for 8 days to determine survival. *p<0.05, compared to control.

[1] = Table 2, treatment i.v. five hours after initiation of inflammation, BisEDT 20 ug/kg
[2] = 20 μg Bi3+/kg BW, *p<0.05 vs control

| Substance | sIL-10 (free fraction), serum (IL-10) [pg/mL] | changes in cytokine levels (IL1β, TNFα, IL-10, TGFβ), in words (TNFα; BisEDT-treated mice, not nearly to the same extent as in the untreated group) | sTNFα (free fraction), serum (TNFα; [1]) [pg/mL] | tTNFα (total fraction), serum (TNFα; [1]) [ng/mL] | % Survival 1 dose (Male swiss white mice; 2 μg Bi3+/kg BW) [%] | % Survival 2 doses (Male swiss white mice; 2 μg Bi3+/kg BW) [%] | % Survival 1 dose (Male swiss white mice; [2]) | % Survival 2 doses (Male swiss white mice; [2]) | % Survival 1 dose (Male swiss white mice; 200 μg Bi3+/kg BW) [%] | % Survival 2 doses (Male swiss white mice; 200 μg Bi3+/kg BW) [%] | % Survived (Male swiss white mice) [%] | Survived/Total (Male swiss white mice) | % of mice protected (Male swiss white mice; doses 10-fold higher or lower than 20 μg/kg) | % of mice survived (Male swiss white mice; one or two doses of 20 μg/kg BisEDT (p<0.05)) | protection of mice (in words) (Male swiss white mice; mouse inflammation model) |
| --- | --- | --- | --- | --- | --- | --- | --- | --- | --- | --- | --- | --- | --- | --- | --- |
| Bismuth-ethanedithiol [BisEDT] | 595 | significant changes in TNFα only | 100 | 330 | 40 | 40 | 60* % | 70* % | 40 | 30 | 60 | 6/10 | 30-40% | 60-70% | – |
| IL-10: IL-10 is an anti-inflammatory cytokine | – | – | – | – | – | – | – | – | – | – | 0 | 0/10 | – | – | no protection |
